What was measured:
[1] = system: GLXMAW (Soybean, Williams); test: Preemergence herbicidal evaluation; format: in vivo, Glycine max, (L.) Merr. cv Williams; conditions: rated 4-5 weeks after treatment
In short: (§1)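 Scores (0–9) reflect visual comparison with control plants for stand, vigor, malformation, size and chlorosis. Compound was applied to the soil after sowing, before emergence, as an aqueous acetone spray (about 0.0156–0.500 kg/ha), and cups were kept in a greenhouse for 4–5 weeks.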

[2] = system: AMBEL (Ragweed, Common); test: Preemergence herbicidal evaluation; format: in vivo, Ambrosia artemisifolia; conditions: rated 4-5 weeks after treatment
In short: as §1

[3] = system: ABUTH (Velvetleaf); test: Preemergence herbicidal evaluation; format: in vivo, Abutilon theophrasti; conditions: rated 4-5 weeks after treatment
In short: as §1

[4] = system: ZEAMX (Corn, Field); test: Postemergence herbicidal evaluation; format: in vivo, Zea mays; conditions: postemergence
In short: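 Scores (0–9) reflect plant stand, vigor, malformation, size, chlorosis and general appearance relative to control, read 4 to 5 weeks after treatment and averaged where tests were repeated. Application: about 0.0156–0.500 kg/ha sprayed at 40 psi onto two-week seedlings.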

[5] = rate 0.1250 kg/ha, rating scale 0-9
[6] = rate 0.2500 kg/ha, rating scale 0-9
[7] = rate 0.0625 kg/ha, rating scale 0-9
[8] = rate 0.0156 kg/ha, rating scale 0-9
[9] = rate 0.0313 kg/ha, rating scale 0-9

Compound | Preemergence herbicidal rating GLXMAW ([1]; rate 0.0313 kg/ha) | Preemergence herbicidal rating GLXMAW ([1]; rate 0.0625 kg/ha) | Preemergence herbicidal rating GLXMAW ([1]; rate 0.1250 kg/ha) | Preemergence herbicidal rating GLXMAW ([1]; rate 0.2500 kg/ha) | Preemergence herbicidal rating GLXMAW ([1]; rate 0.5000 kg/ha) | Preemergence herbicidal rating AMBEL ([2]; rate 0.0313 kg/ha) | Preemergence herbicidal rating AMBEL ([2]; rate 0.0625 kg/ha) | Preemergence herbicidal rating AMBEL ([2]; rate 0.1250 kg/ha) | Preemergence herbicidal rating AMBEL ([2]; rate 0.2500 kg/ha) | Preemergence herbicidal rating AMBEL ([2]; rate 0.5000 kg/ha) | Preemergence herbicidal rating ABUTH ([3]; rate 0.0313 kg/ha) | Preemergence herbicidal rating ABUTH ([3]; rate 0.0625 kg/ha) | Preemergence herbicidal rating ABUTH ([3]; rate 0.1250 kg/ha) | Preemergence herbicidal rating ABUTH ([3]; rate 0.2500 kg/ha) | Preemergence herbicidal rating ABUTH ([3]; rate 0.5000 kg/ha) | herbicidal rating ZEAMX ([4]; rate 0.0156 kg/ha) | herbicidal rating ZEAMX ([4]; rate 0.0313 kg/ha) | herbicidal rating ZEAMX ([4]; rate 0.0625 kg/ha) | Preemergence herbicidal rating GLXMAW [1, 5] | Preemergence herbicidal rating GLXMAW [1, 6] | further results
CCOC(=O)CN1C(=O)C(SC)SC1=Nc1cc(-n2c(=O)cc(C(F)(F)F)n(C)c2=O)c(F)cc1Cl (stereo not shown) [Compound 125, Ethyl 2-{{2-chloro-5-[3,6-dihydro-3-methyl-2,6-dioxo-4-(trifluoromethyl)-1(2H)-pyrimidinyl]-4-fluorophenyl}imino}-5-(methylthio)-4-oxo-3-thiazolidineacetate] | 0.0 | 0.0 | 3.0 | 4.0 | 7.0 | 6.0 | 9.0 | 9.0 | 9.0 | 9.0 | 2.0 | 4.0 | 6.0 | 9.0 | 9.0 | 6.7 | 7.3 | 8.0 |  |  | Preemergence herbicidal rating GLXMAW ([1]; rate 0.0156 kg/ha): 0.0; Preemergence herbicidal rating AMBEL ([2]; rate 0.0156 kg/ha): 0.0; Preemergence herbicidal rating ABUTH ([3]; rate 0.0156 kg/ha): 0.0
COC(=O)CSCCN1C(=O)CSC1=Nc1cc(-n2c(=O)cc(C(F)(F)F)n(C)c2=O)c(F)cc1Cl [Compound 158, Methyl {{2-{2-{{2-chloro-5-[3,6-dihydro-3-methyl-2,6-dioxo-4-(trifluoromethyl)-1(2H)-pyrimidinyl]-4-fluorophenyl}imino}-4-oxo-3-thiazolidinyl}ethyl}-thio}acetate] |  |  |  |  |  |  |  |  |  |  |  |  |  |  |  | 4.0 | 4.5 | 5.5 | 7.0 | 9.0 | Preemergence herbicidal rating GLXMAW ([1]; 0.0156 kg/ha): 1.0; Preemergence herbicidal rating GLXMAW ([1]; 0.0313 kg/ha): 4.0; Preemergence herbicidal rating GLXMAW ([1]; 0.0625 kg/ha): 6.0; Preemergence herbicidal rating AMBEL ([2]; 0.0156 kg/ha): 1.0; Preemergence herbicidal rating AMBEL ([2]; 0.0313 kg/ha): 3.0; Preemergence herbicidal rating AMBEL ([2]; 0.0625 kg/ha): 7.0; Preemergence herbicidal rating AMBEL [2, 5]: 9.0; Preemergence herbicidal rating AMBEL [2, 6]: 9.0; Preemergence herbicidal rating ABUTH ([3]; 0.0156 kg/ha): 9.0; Preemergence herbicidal rating ABUTH ([3]; 0.0313 kg/ha): 9.0; Preemergence herbicidal rating ABUTH ([3]; 0.0625 kg/ha): 9.0; Preemergence herbicidal rating ABUTH [3, 5]: 9.0; Preemergence herbicidal rating ABUTH [3, 6]: 9.0
COCCN1C(=O)CSC1=Nc1cc(-n2c(=O)cc(C(F)(F)F)n(C)c2=O)c(F)cc1Cl [Compound 155, 3-{4-Chloro-2-fluoro-5-{[3-(2-methoxyethyl)-4-oxo-2-thiazolidinylidene]amino}phenyl}-1-methyl-6-(trifluoromethyl)-2,4(1H,3H)-pyrimidinedione] |  |  |  |  |  |  |  |  |  |  |  |  |  |  |  | 4.0 | 4.0 | 4.0 | 0.0 | 4.0 | Preemergence herbicidal rating GLXMAW [1, 7]: 0.0; Preemergence herbicidal rating AMBEL [2, 7]: 0.0; Preemergence herbicidal rating AMBEL [2, 5]: 2.0; Preemergence herbicidal rating AMBEL [2, 6]: 4.0; Preemergence herbicidal rating ABUTH [3, 7]: 2.0; Preemergence herbicidal rating ABUTH [3, 5]: 4.0; Preemergence herbicidal rating ABUTH [3, 6]: 7.0
CCOC(=O)CN1C(=O)C(Cl)SC1=Nc1cc(-n2c(=O)cc(C(F)(F)F)n(C)c2=O)c(F)cc1Cl (stereo not shown) [Compound 126, Ethyl 5-chloro-2-{{2-chloro-5-[3,6-dihydro-3-methyl-2,6-dioxo-4-(trifluoromethyl)-1(2H)-pyrimidinyl]-4-fluorophenyl}imino}-4-oxo-3-thiazolidineacetate] |  | 0.0 | 2.0 | 3.0 | 7.0 |  | 0.0 | 0.0 | 4.0 | 5.0 |  | 5.0 | 5.0 | 9.0 | 9.0 | 4.0 | 4.0 | 4.5 |  |  | herbicidal rating ZEAMX ([4]; rate 0.1250 kg/ha): 6.5
COCCOC(=O)CN1C(=O)CSC1=Nc1cc(-n2c(=O)cc(C(F)(F)F)n(C)c2=O)c(F)cc1Cl [Compound 107, 2-Methoxyethyl 2-{{2-chloro-5-[3,6-dihydro-3-methyl-2,6-dioxo-4-(trifluoromethyl)-1(2H)-pyrimidinyl]-4-fluorophenyl}imino}-4-oxo-3-thiazolidineacetate] | 0.0 | 1.0 | 2.0 | 3.0 |  | 0.0 | 0.0 | 0.0 | 2.0 |  | 0.0 | 1.0 | 9.0 | 9.0 |  |  |  |  |  |  | herbicidal rating ZEAMX ([4]; rate 0.0158 kg/ha): 4.0; herbicidal rating ZEAMX ([4]; rate 0.0315 kg/ha): 6.0; herbicidal rating ZEAMX ([4]; rate 0.0630 kg/ha): 7.0
Cn1c(C(F)(F)F)cc(=O)n(-c2cc(N=C3SCC(=O)N3Cc3ccc(Cl)cc3)c(Cl)cc2F)c1=O [Compound 145, 3-{4-Chloro-5-{[3-(p-chlorobenzyl)-4-oxo-2-thiazolidinylidene]amino}-2-fluorophenyl}-1-methyl-6-(trifluoromethyl)-2,4(1H,3H)-pyrimidinedione] |  |  |  |  |  |  |  |  |  |  |  |  |  |  |  | 4.0 | 4.0 | 5.0 | 1.0 | 2.0 | Preemergence herbicidal rating GLXMAW [1, 8]: 0.0; Preemergence herbicidal rating GLXMAW [1, 9]: 0.0; Preemergence herbicidal rating GLXMAW [1, 7]: 0.0; Preemergence herbicidal rating AMBEL [2, 8]: 0.0; Preemergence herbicidal rating AMBEL [2, 9]: 0.0; Preemergence herbicidal rating AMBEL [2, 7]: 2.0; Preemergence herbicidal rating AMBEL [2, 5]: 5.0; Preemergence herbicidal rating AMBEL [2, 6]: 7.0; Preemergence herbicidal rating ABUTH [3, 8]: 0.0; Preemergence herbicidal rating ABUTH [3, 9]: 2.0; Preemergence herbicidal rating ABUTH [3, 7]: 3.0; Preemergence herbicidal rating ABUTH [3, 5]: 9.0; Preemergence herbicidal rating ABUTH [3, 6]: 6.0
CN1C(=O)C(CC(=O)NO)SC1=Nc1cc(-n2c(=O)cc(C(F)(F)F)n(C)c2=O)c(F)cc1Cl (stereo not shown) [Compound 162, 2-{{2-Chloro-5-[3,6-dihydro-3-methyl-2,6-dioxo-4-(trifluoromethyl)-1(2H)-pyrimidinyl]-4-fluorophenyl}imino}-3-methyl-4-oxo-5-thiazolidineacetohydroxamic acid] |  |  |  |  |  |  |  |  |  |  |  |  |  |  |  | 4.5 | 5.0 | 5.5 |  |  | Preemergence herbicidal rating GLXMAW ([1]; 0.0156 kg/ha): 2.0; Preemergence herbicidal rating GLXMAW ([1]; 0.0313 kg/ha): 2.0; Preemergence herbicidal rating GLXMAW ([1]; 0.0625 kg/ha): 2.0; Preemergence herbicidal rating GLXMAW ([1]; 0.1250 kg/ha): 5.0; Preemergence herbicidal rating GLXMAW ([1]; 0.2500 kg/ha): 9.0; Preemergence herbicidal rating AMBEL ([2]; 0.0156 kg/ha): 0.0; Preemergence herbicidal rating AMBEL ([2]; 0.0313 kg/ha): 3.0; Preemergence herbicidal rating AMBEL ([2]; 0.0625 kg/ha): 5.0; Preemergence herbicidal rating AMBEL ([2]; 0.1250 kg/ha): 9.0; Preemergence herbicidal rating AMBEL ([2]; 0.2500 kg/ha): 9.0; Preemergence herbicidal rating ABUTH ([3]; 0.0156 kg/ha): 9.0; Preemergence herbicidal rating ABUTH ([3]; 0.0313 kg/ha): 9.0; Preemergence herbicidal rating ABUTH ([3]; 0.0625 kg/ha): 9.0; Preemergence herbicidal rating ABUTH ([3]; 0.1250 kg/ha): 9.0; Preemergence herbicidal rating ABUTH ([3]; 0.2500 kg/ha): 9.0
CCOC(=O)CN1C(=O)C(C(=O)OCC)SC1=Nc1cc(-n2c(=O)cc(C(F)(F)F)n(C)c2=O)c(F)cc1Cl (stereo not shown) [Compound 127, 5-Carboxy-2-{{2-chloro-5-[3,6-dihydro-3-methyl-2,6-dioxo-4-(trifluoromethyl)-1(2H)-pyrimidinyl]-4-fluorophenyl}imino}-4-oxo-3-thiazolidineacetic acid, diethyl ester] | 0.0 | 0.0 | 0.0 | 4.0 | 4.0 | 0.0 | 0.0 |  | 5.0 | 9.0 | 7.0 | 7.0 | 9.0 | 9.0 | 9.0 | 4.5 | 4.5 | 7.0 |  |  | herbicidal rating ZEAMX ([4]; rate 0.1250 kg/ha): 8.0
